From patent US12153049B2, “BCR-ABL variants” (Quest Diagnostics Investments LLC, priority 2008, dated 2024)
“And” between values parts separate entries of the source, which are not always exact repeats. Equal values may be shown once. “Also recorded” adds a separate entry of the source. Where a name gives a salt, the structure may show the parent alone. Read-outs that look alike come from different tables or passages of the source.

What was measured:
[1] = system: K562 CML cells (empty vector); test: MTT cell proliferation assay, K562 cells with empty vector; format: cell-based, human; conditions: for IC50: Empty vector pCMV/GFP, drug 48 h, read-out: IC50 (median-effect dose, MTT)
Procedure: (§1) The effect of the drugs on cell proliferation was measured by MTT assay (FIG. 18A, right panel; mean±S.D; n=3). Dose response to cell death curves of K562 cells exposed to drugs were generated with the CalcuSyn® software package (Biosoft, Ferguson, MO) for each of at least three experiments.

[2] = system: K562 cells transfected with pMIG/BCR-ABL1p210; test: MTT cell proliferation assay, K562 cells transfected with pMIG/BCR-ABL1p210; format: cell-based, human; conditions: for IC50: pMIG/BCR-ABL1p210 0.1 μg DNA, K562 cells, drug 48 h, read-out: IC50 (median-effect dose, MTT); for Resistance to the drug caused by wild-type BCR-ABL1p210 expression: K562 cells transfected with BCR-ABL1p210
Procedure: as §1, with “K562 cells were cotransfected with an increasing amount (0 to 100 ng) of plasmid pMIG/35 INS BCR-ABL and 100 ng of either pMIG/BCR-ABL1p210 or empty plasmid (pMIG). […] The” for “The”

[3] = system: tyrosine kinase (TK) activity in K562 cells (empty vector); test: Universal Tyrosine Kinase Assay on cell extract, K562 empty vector; format: cell-based, human; conditions: relative to no-drug control, imatinib 1.2 μM, nilotinib 5 nM, dasatinib 5 nM, MK 0457 2 μM, homoharringtonine X μM
Procedure: (§2) K562 cells were cotransfected with increasing amounts of plasmid encoding pMIG/35 INS bcr-abl and either 100 ng of pMIG/BCR-ABL1p210 or the same amount of control vector (empty vector plasmid). […] Rabbit polyclonal IgG anti-Lyn, anti-Aurora A, and anti-Aurora B were obtained from Santa Cruz Biotechnology, (Santa Cruz, CA); rabbit polyclonal IgG anti-p-Src, anti-p-StatS, and anti-p-Crkl were obtained from Cell Signaling (Danvers, MA). Goat anti-rabbit PE (Santa Cruz Biotechnology) was used as the secondary antibody. LYN, p-CRKL, p-SRC, p-STATS, and Aurora A and B status were monitored. All experiments were repeated at least three times. Asterisk indicates p<0.05 relative to Control (empty vector).
(§3) Tyrosine kinase assay was performed using the Universal Tyrosine Kinase Assay Kit (GenWay Biotech, San Diego, CA) according to the manufacturer's instruction. The universal protein tyrosine kinase substrate peptide, Poly (Glu-Tyr) (4:1, 20-50 kDa) was pre-coated onto 96-well microtiter plates. Serial dilutions of prepared cell extract and 5-point standards (with known tyrosine kinase activities) were added to the plate in triplicates along with an ATP-containing kinase buffer. After incubation at 37° C. for 30 min to allow phosphorylation of tyrosine residues, the sample solution was removed and the wells washed with Washing buffer (PBS with 0.05% Tween-20) and blocked with Blocking solution. Anti-phosphotyrosine (PY20)-horse radish peroxidase (HRP) conjugate was then added to the plate. After incubation at 37° C. for 30 min, the PY20-HRP solution was replaced by HRP substrate solution (TMBZ). For colorimetric determination of PTK activity, the sample's specific absorbance at 450 nm was calculated from the standard curve.

[4] = system: tyrosine kinase (TK) activity in K562 cells transfected with BCR-ABL1p210; test: Universal Tyrosine Kinase Assay on cell extract, K562 BCR-ABL1p210; format: cell-based, human; conditions: relative to no-drug control, imatinib 1.2 μM, nilotinib 5 nM, dasatinib 5 nM, MK 0457 2 μM, homoharringtonine X μM
Procedure: as §2, §3

[5] = system: phosphorylation of CrkL, LYN, pSRC, pSTAT5, Aurora A and B in K562 cells; test: Phosphorylation of BCR-ABL substrates, K562 cells; format: cell-based, human
Procedure: (§4) The effect of a compound on the kinase activity of the BCR-ABL is assessed by monitoring tyrosine phosphorylation profile of the cellular proteins. […] Genetically modified cells comprising recombinant bcr-abl or variant so of bcr-abl including the splice variant are grown in presence of various amounts of a compound for treating CML patients. […] Amount of phosphorylated CrkL protein can be measured by using detectably labeled anti-phospho CrkL antibody. In one embodiment, the detectable label is phycoerythrin. The signal can be detected by Flow cytometer. Alternatively, the signal can be detected by Fluorescent Microtiter plate reader.
as §2, with “times.” for “times. Asterisk indicates p<0.05 relative to Control (empty vector).”

[6] = system: K562 cells transfected with pMIG/35 INS bcr-abl; test: MTT cell proliferation/viability assay, K562 cells transfected with pMIG/35 INS bcr-abl; format: cell-based, human; conditions: for IC50: read-out: IC50 (median-effect dose, MTT)
Procedure: as §1, with “K562 cells were cotransfected with an increasing amount (0 to 100 ng) of plasmid pMIG/35 INS BCR-ABL and 100 ng of either pMIG/BCR-ABL1p210 or empty plasmid (pMIG). […] The” for “The”

[7] = system: tyrosine kinase (TK) activity in K562 cells transfected with BCR-ABL1 35INS; test: Universal Tyrosine Kinase Assay on cell extract, K562 BCR-ABL1 35INS; format: cell-based, human
Procedure: as §2, with “times.” for “times. Asterisk indicates p<0.05 relative to Control (empty vector).”
as §3

[8] = system: caspase-3 activation in K562 cells; test: Caspase-3 activation (apoptosis) assay in transfected K562 cells; format: cell-based, human; conditions: for Effect of 35 INS BCR-ABL gene transfer on drug-induced caspase-3 activation: K562 cells transfected with 35 INS BCR-ABL
Procedure: To perform caspase assays, K562 cells were transiently transfected in 6-well dishes using the above procedure. […] Typically, 15-25 μg of lysates were analyzed for protease activity by continuously measuring the release of fluorogenic substrate Ac-DEVD-aminofluoromethylcoumarin product from EMD (San Diego, CA) at 37° C., as described (Capdeville et al., Nat. Rev. Drug Discov. 2002, 1:493).
Induction of apoptosis measured by caspase-3 activation (mean [SD]; n=3) in K562 cells transfected with the different plasmids as described above and shown in FIG. 18B.
(§5) Lysates were prepared at the times indicated and examined by caspase-3 assay (left) or by immunoblots using specific antibodies for BIM and actin (right) (see FIGS. 22A-22B).

[9] = system: BIM expression in K562 cells; test: BIM induction by immunoblot in K562 cells; format: cell-based, human; conditions: 24 to 48 hours' incubation
Procedure: as §5

CML patients = conditions: cited from earlier work
[10] = system: phosphorylation of CrkL and other substrates in K562 cells transfected with pMIG/35 INS bcr-abl; test: Phosphorylation of BCR-ABL substrates, K562 cells transfected with pMIG/35 INS bcr-abl; format: cell-based, human
Procedure: as §4
as §2, with “times.” for “times. Asterisk indicates p<0.05 relative to Control (empty vector).”

[11] = BCR-ABL1 35INS, relative to no-drug control, imatinib 1.2 μM, nilotinib 5 nM, dasatinib 5 nM, MK 0457 2 μM, homoharringtonine X μM

SMILES	IC50 ([1]; Homo sapiens) [nM]	IC50 ([2]; Homo sapiens) [nM]	Relative tyrosine kinase activity [3] [%]	Relative tyrosine kinase activity [4] [%]	Effect on Aurora A and B [5]	Relative tyrosine kinase activity [7, 11] [%]	Cell death in K562 cells [1]	Resistance to the drug caused by wild-type BCR-ABL1p210 expression [2]	Effect of 35 INS BCR-ABL gene transfer on drug-induced caspase-3 activation [8]	other results
Cc1nc(Nc2ncc(C(=O)Nc3c(C)cccc3Cl)s2)cc(N2CCN(CCO)CC2)n1 [Dasatinib, dasatinib]	12	11	15.6	20.6	no effect	–	–	–	–	–
COC(=O)C[C@](O)(CCCC(C)(C)O)C(=O)O[C@@H]1C(OC)=C[C@]23CCCN2CCc2cc4c(cc2[C@H]13)OCO4 [HHT, homoharringtonine]	63	54	59.8	79.2	–	75.4	–	–	–	IC50 ([6]; Homo sapiens, K562, 48 h, pMIG/35 INS bcr-abl 0.01 μg DNA, K562 cells, drug 48 h): 61 nM; IC50 ([6]; Homo sapiens, K562, 48 h, pMIG/35 INS bcr-abl 0.05 μg DNA, K562 cells, drug 48 h): 49 nM; IC50 ([6]; Homo sapiens, K562, 48 h, pMIG/35 INS bcr-abl 0.1 μg DNA, K562 cells, drug 48 h): 54 nM
Cc1ccc(NC(=O)c2ccc(CN3CCN(C)CC3)cc2)cc1Nc1nccc(-c2cccnc2)n1 [Imatinib, imatinib mesylate]	–	–	–	–	–	–	induced cell death	did not induce resistance	induced resistance; also recorded: increase was inhibited	Caspase-3 activation over time ([8]; CML K562 cells, continuous treatment): increased with time; BIM expression / induction [9]: expressed at increased levels; Primary resistance rate (failure to achieve any hematologic response) (CML patients; accelerated-phase CML): 9%; Secondary resistance rate (hematologic recurrence) (CML patients; accelerated-phase CML): 32%; Primary resistance rate (failure to achieve any hematologic response) (CML patients; blast-phase CML): 51%; Secondary resistance rate (hematologic recurrence) (CML patients; blast-phase CML): 41%; Primary resistance rate (failure to achieve any hematologic response) (CML patients; chronic-phase CML): 3%; Secondary resistance rate (hematologic recurrence) (CML patients; chronic-phase CML): 22%
Cc1cc(Nc2cc(N3CCN(C)CC3)nc(Sc3ccc(NC(=O)C4CC4)cc3)n2)n[nH]1 [MK-0457]	–	–	87.3	96.7	–	100	–	did not induce resistance	did not affect the rate of caspase-3 activation	IC50 [1]: 1810 nM; Resistance to the drug caused by 35 INS BCR-ABL expression (MTT) ([6]; K562 cells transfected with pMIG/35 INS bcr-abl): did not induce resistance; IC50 ([6]; pMIG/35 INS bcr-abl 0.01 μg DNA, K562 cells, drug 48 h): 2000 nM; IC50 ([6]; pMIG/35 INS bcr-abl 0.05 μg DNA, K562 cells, drug 48 h): 1980 nM; IC50 ([6]; pMIG/35 INS bcr-abl 0.1 μg DNA, K562 cells, drug 48 h): 1540 nM; IC50 [2]: 1790 nM; Effect of 35 INS BCR-ABL expression on inhibition of kinases/phosphorylation by the drug [10]: no effect on inhibition
Cc1cn(-c2cc(NC(=O)c3ccc(C)c(Nc4nccc(-c5cccnc5)n4)c3)cc(C(F)(F)F)c2)cn1 [Nilotinib, nilotinib]	42	42	23.4	33.1	no effect	–	induced cell death	did not induce resistance	induced resistance	Increase of IC50 with pMIG/35 INS bcr-abl vector [6]: 1.7 fold; IC50 ([6]; Homo sapiens, K562, 48 h): 52 nM; IC50 [6]: 54 nM and 71 nM; Relative tyrosine kinase activity [7]: 76.2%; Relative potency in induction of apoptosis (caspase-3 activation) ([8]; K562 cells): more potent than imatinib; Phosphorylation of CrkL, LYN, pSRC and pSTAT5 [5]: inhibited phosphorylation
